Results published in EP0970121B1, “PEPTIDE FRAGMENTS OF MYELIN BASIC PROTEIN, THEIR PHARMACEUTICAL COMPOSITIONS AND THEIR USE IN TREATING MULTIPLE SCLEROSIS” (The Governors of the University of Alberta, priority 1997, dated 1998).
Entries after “also recorded” stand apart in the source; their conditions may differ. Where no end group is shown, it is not given here.

Columns and labels:
[1] = test system: anti-MBP purified from CSF of MS patients; test: In vitro neutralization of purified anti-MBP (liquid phase assay, then solid phase radioimmunoassay); assay type: binding, human; design: key to REACTIVITY WITH ANTI-MBP: + +: complete neutralization; +: partial neutralization; -: insignificant reactivity; details: for REACTIVITY WITH ANTI-MBP: purified anti-MBP, peptides 0-10.000 ng, h-MBP 0-1000 ng, 1.5 hours incubation; for neutralization of purified anti-MBP: pooled anti-MBP from 10 different MS patients, peptides up to 10.000 ng, MBP and negative antigen controls up to 1000 ng
Procedure: (§1) Constant amounts of anti-MBP (15 radioactivity binding units corresponding to 100 for scale expansion purposes = %0) were incubated with increasing amounts of h-MBP (0-1000 ng) or individual peptides of MBP (0-10.000 ng) in a liquid phase assay and after 1.5 hours incubation, free anti-MBP levels were determined in all mixtures. Anti-MBP isolated from 7 individual MS patients or pooled anti-MBP from 10 different MS patients were used in neutralization experiments. Calf thymus histone and human serum albumin were used as negative antigen controls (range: 10-1000 ng). One monoclonal antibody (MAb) to peptide MBP64-78 and a polyclonal rabbit antiserum to peptide MBP1-8 were used as positive antibody controls (Groome, N., Harland, J., and Dawkes, A., Neurochem Int 7:309-317, 1985, Barry, R., Payton. M., and Groome, N., Neurochem Int 2:291-300. 1991). Another mouse monoclonal antibody to epitope 45-50 was used as negative antibody control.
Anti-MBP levels were determined by a solid phase radioimmunoassay with human MBP (Warren, K.G. and Catz, I., Ann Neurol 209:20-25, 1986; Warren, K.G. and Catz, I., Ann Neurol 21:183-187, 1987; and Warren, K.G. and Catz, I., J Neurol Sci 91:143-151. 1989). Free anti-MBP levels were measured in all fractions from affinity chromatography and in all neutralization mixtures. All individual samples were run in quadruplicate using the same iodinated material in order to minimize between-assay variability.

MS patients = test: Monitoring for adverse effects after peptide administration; assay type: in vivo, human
Procedure: After determining that peptide MBP75-95 neutralized F anti-MBP in vivo for periods in excess of 7 days, it was elected to repeatedly inoculate 10 mg MBP75-95 into the spinal fluid at weekly intervals for 10 weeks. This experiment was conducted, in 3 different patients with chronic progressive MS who have not participated in the single peptide injection project and volunteered for this study. F and B anti-MBP were determined 1-2 weeks prior to the first inoculation, prior to and 30 minutes following each of the 10 injections and again 1 month after the last injection. Cell counts, total protein, glucose, IgG and albumin levels were determined in all CSFs obtained before each of the 10 injections. Prior to the first and after the last injection blood was obtained and analyzed for electrolytes, creatinine, cardiac and liver enzymes and hematology panel.
Blood was obtained before injection as well as 16 and 30 days later and analyzed for electrolytes, creatinine, cardiac and liver enzymes and hematology panel. Spinal fluid was monitored for cell counts, total protein, glucose, IgG and albumin levels.

[2] = test system: polyclonal rabbit antiserum to peptide MBP1-8; test: Positive antibody control of the neutralization assay; assay type: binding
Procedure: as §1

CSF anti-MBP = test: Intrathecal peptide administration, CSF anti-MBP by radioimmunoassay; assay type: in vivo, human
Procedure: Anti-MBP levels were determined by a solid phase radioimmunoassay with human MBP coated on Immulon microtiter wells. Immulon microtiter wells were coated with 100 µl of 10 µg/ml of MBP (1 µg/well) and incubated overnight at 37°C. After quenching with bovine serum albumin (BSA) and three water washes, the wells were stored at room temperature. Samples of 100 µl of CSF or tissue extracts diluted to 0.010 gm of IgG/l (with 0.01 M Barbitol Buffered Saline (BBS) pH 6.9-7.1. 0.5% BSA and 0.05% Tween 20) were incubated in MBP-coated wells for 1-2 hours at room temperature. After 5 buffer washes (with 0.01 M BBS, 0.5 BSA and 0.05% Tween 20), wells were incubated with goat anti-rabbit IgG-Fc specific (in 0.01 M BBS, 0.05% Tween 20, 0.5% BSA) for 1 hour at room temperature and then rinsed as above. Finally, ^125I-protein A (or ^125 I-protein G) was added and incubated for 1 hour at room temperature. When ^125I-protein G was used as a tracer, ovalbumin replaced BSA in assay buffer and for quenching. After three final water washes wells were individually counted. Results are expressed in radioactivity defined as: (counts of sample - counts of blank) ÷ (counts of total radioactivity - counts of blank). All samples are run in 10 replicate and counting time is 10 minutes in order to collect > 10,000 counts for any positive sample.
Prior to being assayed all CSF and/or tissue samples were diluted to a final IgG concentration of 0.010 g/l. F anti-MBP was detected directly in CSF or tissue extract while B levels of antibody were determined following acid hydrolysis of immune complexes with glycine HCl buffer pH 2.2. Non-specific binding was performed for each sample in uncoated wells. For epitope localization, synthetic peptides were firstly reacted with purified antibody in a liquid phase competitive assay and then anti-MBP was determined by radioimmunoassay in all resulting supernatants. Results of the combined competitive binding assay and radioimmunoassay were expressed as percent inhibition of synthetic peptide defined as 100 - radioactivity units. Samples were done in 10 replicates and counted for 10 minutes each in a LKB1275 Minigamma counter. […]
A Phase 1 experiment to determine the effect of synthetic peptide MBP75-95 on F and B titers of CSF anti-MBP was conducted. […] 14 patients volunteered for this study: eight patients were selected on the basis of their initial titre of F CSF anti-MBP (above 8 radioactivity units) (Table 2) to receive one intrathecal injection of either peptide MBP75-95 which bound anti-MBP in vitro or a non-binding control peptide MBP35-58 (Warren and Catz, 1993b). […] Cell counts, total protein, glucose, IgG and albumin levels were determined in all CSF samples obtained. F and B anti-MBP levels were determined by radioimmunoassay, as described above. […]

[3] = test system: F and B anti-MBP purified by affinity chromatography from CSF and MS brain tissue; test: Competitive inhibition assay with decapeptides (MBP epitope localization); assay type: binding, human; details: purified F and B anti-MBP from MS brain tissue (Fig. 10); percent inhibition = 100 - radioactivity units
Procedure: Prior to being assayed all CSF and/or tissue samples were diluted to a final IgG concentration of 0.010 g/l. F anti-MBP was detected directly in CSF or tissue extract while B levels of antibody were determined following acid hydrolysis of immune complexes with glycine HCl buffer pH 2.2. Non-specific binding was performed for each sample in uncoated wells. For epitope localization, synthetic peptides were firstly reacted with purified antibody in a liquid phase competitive assay and then anti-MBP was determined by radioimmunoassay in all resulting supernatants. Results of the combined competitive binding assay and radioimmunoassay were expressed as percent inhibition of synthetic peptide defined as 100 - radioactivity units. Samples were done in 10 replicates and counted for 10 minutes each in a LKB1275 Minigamma counter. A pool of tissue-purified anti-MBP was used at 5 pre-established dilutions as positive controls. Pooled CSF from patients with non-neurological diseases was used as negative controls. Within assay reproducibility was between 3 and 5% and between assay variation was less than 7 %.
The peptide(s) producing maximum inhibition were considered to be most highly associated with the antibody binding site.

[4] = Solubility in normal saline

Q: Which “REACTIVITY WITH ANTI-MBP” value [1] does the source give for “18-32: synthetic peptide of human MBP sequence 18-32 (NSETNRGESEKKRNL; UniProt P02686 18-32, looked up, fragment)” here?
A: Its value is “-”.

Q: For “26 - 40: synthetic peptide of human MBP sequence 26-40 (SEKKRNLGELSRTTS; UniProt P02686 26-40, looked up, fragment)”, which “REACTIVITY WITH ANTI-MBP” value [1] is on record?
A: Its value is “-”.

Q: With “117 - 129: synthetic peptide of human MBP sequence 117-129 (LQTIQEDSAATSE; UniProt P02686 117-129, looked up, fragment)” as the substance, how does the “REACTIVITY WITH ANTI-MBP” value [1] read?
A: The value was “-”.

Q: For “141 - 155: synthetic peptide of human MBP sequence 141-155 (SQRHGSKYLATASTM; UniProt P02686 141-155, looked up, fragment)”, which “REACTIVITY WITH ANTI-MBP” value [1] is on record?
A: Its value is “-”.

Q: With “Cy 4 - 18: synthetic peptide of human MBP sequence 4-18 with cysteine (HAGKRELNAEKASTN; also: added cysteine, end not given here; UniProt P02686 4-18, looked up, fragment)” as the substance, how does the “REACTIVITY WITH ANTI-MBP” value [1] read?
A: The value was “-”.

Q: Which “REACTIVITY WITH ANTI-MBP” value [1] does the source give for “Cy 11 - 24: synthetic peptide of human MBP sequence 11-24 with cysteine (NAEKASTNSETNRG; also: added cysteine, end not given here; UniProt P02686 11-24, looked up, fragment)” here?
A: Its value is “-”.

Q: With “Cy 51 - 64 Gly: synthetic peptide of human MBP sequence 51-64 with cysteine and Gly (ANQNNGTSSQDTAV; also: added cysteine and glycine, ends not given here; UniProt P02686 51-64, looked up, fragment)” as the substance, how does the “REACTIVITY WITH ANTI-MBP” value [1] read?
A: The value was “+”.

Q: For “Cy 127 - 140: synthetic peptide of human MBP sequence 127-140 with cysteine (TSESLDVMASQKRP; also: added cysteine, end not given here; UniProt P02686 127-140, looked up, fragment)”, which “REACTIVITY WITH ANTI-MBP” value [1] is on record?
A: Its value is “-”.

Q: With “Cy 136 - 149: synthetic peptide of human MBP sequence 136-149 with cysteine (SQKRPSQRHGSKYL; also: added cysteine, end not given here; UniProt P02686 136-149, looked up, fragment)” as the substance, how does the “REACTIVITY WITH ANTI-MBP” value [1] read?
A: The value was “-”.

Q: For HHPARTAHYGSLPQK [MBP61-75], which “neutralization of purified anti-MBP” value [1] is on record?
A: The value was “partially neutralized”.

Q: And the “REACTIVITY WITH ANTI-MBP” value [1]?
A: Its value is “+”.

Q: For KSHGRTQDENPVVHFFKNIVT [MBP75-95], which adverse effects (MS patients; 500 mg intravenously over 30 minutes, patient 8M41) is on record?
A: Its adverse effects is “No adverse effects were observed”.

Q: And the “adverse effects / systemic complications” value (MS patients; repeated intrathecal inoculations, electrolytes, cardiac-liver-kidney function, hematology)?
A: Its value is “no adverse complications have occurred”.

Q: Which results are given for “MBP1-8: synthetic peptide of human MBP sequence 1-8 with cysteine (MGNHAGKR; also: added cysteine, end not given here; UniProt P02686 1-8, looked up, fragment)”?
A: REACTIVITY WITH ANTI-MBP [1]: -; inhibition of MAb to peptide MBP 1-8 [2]: inhibited

Q: Which “REACTIVITY WITH ANTI-MBP” value [1] does the source give for “MBP35-58: non-binding, control synthetic peptide of human MBP residues 35-58 (LSRTTSEDNEVFGEADANQNNGTS; also: added cysteine, end not given here; UniProt P02686 35-58, looked up, fragment)” here?
A: The value was “-”.

Q: And the “F and B levels of CSF anti-MBP” value (CSF anti-MBP; one intrathecal injection of 1, 2.5, 5 and 10 mg, 24 hour experiment)?
A: Its value is “remained unaffected; also recorded: remained unchanged”.

Q: What about the “F anti-MBP in CSF” value (CSF anti-MBP; one intrathecal injection, 5 mg) of the same substance?
A: The value was “remained elevated at baseline level”.

Q: And the “F anti-MBP in CSF” value (CSF anti-MBP; one intrathecal injection, 10 mg)?
A: The value was “persistently elevated”.

Q: And the “CSF F anti-MBP over increasing doses” value (CSF anti-MBP; one intrathecal injection, increasing amounts 1, 2.5, 5 and 10 mg)?
A: The value was “did not react”.

Q: With “MBP51 -60: decapeptide of human MBP residues 51-60, negative control (ANQNNGTSSQ; UniProt P02686 51-60, looked up, fragment)” as the substance, how does the “percent inhibition of both F and B anti-MBP” value [3] read?
A: The value was 0-10%.

Q: With “MBP 111 -120: decapeptide of human MBP residues 111-120, negative control (PSESDELQTI; UniProt P02686 111-120, looked up, fragment)” as the substance, how does the “percent inhibition of both F and B anti-MBP” value [3] read?
A: The value was 0-10%.

Q: For “Thr Gln Asp Glu Asn Pro Val Val His Phe Phe Lys Asn Ile Val Thr Pro Arg (TQDENPVVHFFKNIVTPR; printed: Thr Gln Asp Glu Asn Pro Val Val His Phe Phe Lys Asn Ile Val Thr Pro Arg) [MBP80-97]”, which “neutralization of anti-MBP purified from 7 individual MS patients” value ([1]; anti-MBP of individual patients) is on record?
A: Its value is “completely neutralized”.

Q: And the “neutralization of purified anti-MBP” value [1]?
A: The value was “completely neutralized”.

Q: What about the “REACTIVITY WITH ANTI-MBP” value [1] of the same substance?
A: The value was “+ +”.

Q: What about the “times less effective on a molar basis than intact MBP at causing inhibition” value ([1]; relative to intact MBP) of the same substance?
A: Its value is “approximately 100 times”.

Q: With “VVHFFKNIVT [MBP86-95, Val Val His Phe Phe Lys Asn Ile Val Thr]” as the substance, how does the solubility [4] read?
A: The solubility was “very low solubility”.
